Experimental data from publication PMC6271179 (Molecules, 2014).

Legend:
[1] = In vivo pharmacokinetics after oral (intragastric) administration to rats; details: rat
Method: Derivative 2 was administered to overnight-fasted male Wistar rats from the facility of the Department of Biomedical Sciences as a single intragastric dose (88 µmol/kg, dissolved in 250 µL water). Blood samples were obtained by the tail bleeding technique: before drug administration, rats were anesthetised with isoflurane and the tip of the tail was cut off; blood samples (80–100 µL each) were then taken from the tail tip at different time points after drug administration. Blood was collected in heparinised tubes, kept in ice and treated as described in [90] within 10 min.
For quantification purposes we assumed the same absorption coefficient.

[2] = system: explanted rat jejunum segments; assay: Permeation across explanted rat jejunum segments in Ussing-type chambers (ex vivo)
Method: We assayed transport of the derivatives across explanted rat jejunum segments using Ussing-type chambers.
Intestine was excised from 18 h fasted rats and transferred into a saline solution (154 mM NaCl in water) at 37 °C. The jejunum was cut into 1 cm long strips, opened longitudinally, rinsed free of luminal content and mounted in Ussing-type chambers. Apical and basolateral compartments were filled with 1 mL each of oxygenated HEPES buffer (248 mM NaCl, 55.3 mM glucose, 50 mM NaHCO3, 9.9 mM KCl, 1.9 mM MgSO4, 40 mM HEPES, pH 6.8), and incubated in a water bath at 37 °C until all chambers were assembled (approximately 20 min). The buffer was then removed and substituted with 1 mL of a 20 µM solution (in the same buffer) of the compound to be tested on the apical side (dilution from a 20 mM stock solution), and with 1 mL of fresh HEPES buffer on the basolateral one. […] During the experiment, oxygen was continuously bubbled in each basolateral compartment. […]
Samples (2 µL) were analyzed by HPLC/UV (1290 Infinity LC System, Agilent Technologies) using a reverse phase column (Zorbax RRHD Eclipse Plus C18, 1.8 µm, 50 x 2.1 mm i.d.; Agilent Technologies) and a UV diode array detector (190-500 nm). […]

SMILES: CN(CCCCOC1C(O)C(O)OC(CO)C1O)C(=O)Oc1ccc(C=Cc2cc(OC(=O)N(C)CCCCOC3C(O)C(O)OC(CO)C3O)cc(OC(=O)N(C)CCCCOC3C(O)C(O)OC(CO)C3O)c2)cc1 [derivative 2, 3,4',5-Tri-[α/β-D-glucopyranose-3-(4-N-methyl-N-butoxy)]-resveratrol carbamate]
- Tmax ([1]; male, Wistar, whole blood, po, 88 umol/kg, single intragastric dose 88 µmol/kg, blood, read-out: time of maximum blood levels (converted)): ~1 h
- concentration of the derivative in the bloodstream ([1]; gavage 88 µmol/kg, during the 4 hours following administration): low concentrations
- resveratrol and its common metabolites in blood after oral administration (hydrolysis of carbamate groups) ([1]; oral, also basolateral chamber ex vivo): Neither resveratrol nor its common metabolites were present in detectable amounts
- species detected in the basolateral chamber ([2]; 20 µM apical, 2.5 h): only the intact derivative was detected
- extent of translocation with SGLT-1/GLUT-2 inhibitors (phlorizin, phloretin, cytochalasin B), low glucose, non-fasted or glucose-fed rats ([2]; comparison among conditions): not to differ significantly
